In US20030161893A1, “PTPase inhibitors and methods of using the same” (priority 2001, published 2003):

Legend:
[1] = test system: MDA231 cells; assay: Cell proliferation assay (MTT), MDA231 breast cancer cells; format: cell-based, human
Description: For cell proliferation assays, cells were grown in 10% FCS culture medium containing various amounts of IFNs and/or sodium stibogluconate in 96 well plates and cultured at 37° C. for 3 or 6 days as indicated. The numbers of viable cells in proliferation assays were determined by MTT assays as described in Phatak et al., J. Immunol. 167, 3391 (2001).

[2] = test system: NB4 cells; assay: NB4 cell differentiation (NBT reduction, CD11b); format: cell-based, human
Description: Differentiation of AML cell lines was assessed by their ability to produce superoxide as measured by reduction of NBT to formazan and by analysis of expression of CD11b surface marker by flow cytometry. For NBT reduction, each cell suspension was mixed with an equal volume of solution containing 1 mg/ml of NBT (Sigma) and 2.5 μg/ml of TPA for 30 minutes at 37° C. After incubation, cells containing the purple formazan deposits and cells devoid of NBT-reducing activity (white cells) in each sample were determined by counting 200 cells under microscope. Data is expressed as a percentage based on the following ratio: purple cells/purple+white cells. For analysis of cell surface antigens, cells were exposed to phycoerythrin (PE)-conjugated murine anti-human CD11b (DAKO Corp., Carpinteria, Calif.). Analysis of fluorescence was performed on a FACScan flow cytometer (Beckton Dickinson, Mountain View, Calif.).

[3] = biological target: T1, PRL-3 (Homo sapiens, UniProt O75365); assay: In vitro PTPase assay, recombinant PRL-3; format: biochemical
T1 construct: cDNAs of human PRL-1, PRL-2 and PRL-3 coding region were derived by RT-PCR from H9 cells; made in house; host or cells: DH5a bacteria (E. coli)
T1 sequence (O75365 whole entry): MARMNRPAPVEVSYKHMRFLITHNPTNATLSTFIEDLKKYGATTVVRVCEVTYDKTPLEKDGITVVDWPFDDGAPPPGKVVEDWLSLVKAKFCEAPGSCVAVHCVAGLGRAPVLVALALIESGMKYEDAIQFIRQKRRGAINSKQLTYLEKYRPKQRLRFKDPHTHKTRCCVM
Text: Sodium stibogluconate, suramin, sodium orth ovanadate and GST fusion protein of SHP-1 have been described previously (Pathak et al., J. Imumol. 167, 3391 (2001)). Meglumine antimonate was obtained from Aventis. cDNAs of human PRL-1, PRL-2 and PRL-3 coding region were derived by RT-PCR from H9 cells (Safai, et al., Lancet 1, 1438 (1984)) and inserted in frame into the pGEX vector. cDNA of PRL-1R86 was generated by recombinant DNA technique using PRL-1 cDNA as template following established procedures (Jiao, et al., Mol. Cell. Biol. 16, 6985 (1996)). GST fusion proteins of the PRL phosphatases were prepared from DH5a bacteria transformed with the pGEX fusion protein constructs as described previously (Yi, et al., Mol. Cell. Biol. 12, 836 (1992)). cDNAs encoding the PRLs tagged at the N-termini with the Flag epitope (Castrucci, et al., J. Virol. 66, 4647 (1992)) were generated via recombinant DNA technique, sequenced to confirm their identities and cloned into the pBabepuro vector (Yang, et al., Blood 91, 3746 (1998)). Anti-Flag monoclonal antibody (M2, Sigma) was purchased from a commercial source. A synthetic phosphotyrosine peptide (Arg-Arg-Leu-Ile-Glu-Asp-Ala-Gle-Tyr-Ala-Ala-Arg-Gly (SEQ ID NO: 3), wherein the tyrosine is phosphorylated; UBI) and DiFMUP (6, 8-difluoro-4-methylumbelliferyl phosphate, Molecular Probes) were purchased as substrates for PTPase assays.
In vitro PTPase assays were used to determine the effects of compounds on recombinant PTPases, following established procedures using a synthetic phosphotyrosine peptide or DiFMUP as the substrate (Pathak et al., J. Imumol. 167, 3391 (2001)). Briefly, individual PTPases (0.1 μg/reaction) in 50 μL of PTPase buffer (50 mM Tris, pH 7.4) were incubated at 22° C. for 10 minutes or as indicated in the absence or presence of inhibitory compounds. Substrates (0.2 mM phosphotyrosine peptide) were then added and allowed to react at 22° C. for 18 hrs. PTPase activity of individual reactions was measured by adding 100 μL of malachite green solution (UBI) and then quantifying the amounts of free phosphate cleaved by the PTPase from the peptide substrate by spectrometry (OD660 nm). PTPase assays using DiFMUP as a substrate were conducted following a previously described procedure (Matter, et al., Biochem. Biophys. Res. Comm. 283, 1061 (2001)). Relative PTPase activities were calculated based on the formula: (PTPase activity in the presence of an inhibitory compound/PTPase activity in the absence of the compound)×100%. To assess the reversibility of PTPase inhibition, GST fusion proteins of the PTPases bound on glutathione beads (Pharmacia) were pre-incubated with cold Tris buffer (50 mM Tris, pH 7.0) or Tris buffer containing the inhibitor at 4° C. for 30 minutes. The beads were then washed three times in cold Tris buffer or not washed prior to subjecting to in vitro PTPase assays.

[4] = biological target: T2, MKP1 (Homo sapiens, UniProt P28562); assay: In vitro PTPase assay, GST/MKP1 fusion protein; format: biochemical
T2 construct: a pGEX construct containing the coding region of MKP1 cDNA derived by RT-PCR; made in house; host or cells: DH5a bacteria (E. coli)
T2 sequence (P28562 1-367): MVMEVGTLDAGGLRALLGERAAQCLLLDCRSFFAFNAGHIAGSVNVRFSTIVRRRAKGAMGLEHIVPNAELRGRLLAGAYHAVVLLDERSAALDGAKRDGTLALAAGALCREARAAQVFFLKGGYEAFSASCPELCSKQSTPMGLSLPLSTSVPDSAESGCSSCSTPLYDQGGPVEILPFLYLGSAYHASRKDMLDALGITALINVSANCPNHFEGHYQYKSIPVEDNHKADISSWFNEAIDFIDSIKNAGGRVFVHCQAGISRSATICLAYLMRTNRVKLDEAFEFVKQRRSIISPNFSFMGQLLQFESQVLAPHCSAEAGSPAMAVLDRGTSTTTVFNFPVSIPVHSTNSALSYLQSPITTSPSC

O.O.O.O.O.O.O.O.O.O=C([O-])[C@@H]1[O][Sb]2([O-])([O][Sb]34([OH])[O][C@H]([C@H](O)CO)[C@H]([O]3)[C@H](C(=O)[O-])[O]4)[O][C@H]([C@H](O)CO)[C@@H]1[O]2.[Na+].[Na+].[Na+] [sodium stibogluconate]
killing of MDA231 cells, single agent ([1]; 50 μg/ml and 100 μg/ml, day 6 culture): killed all cells
IFN-alpha-induced growth inhibition of MDA231 in presence of drug ([1]; day 6): augmented
interaction with ATRA in differentiation induction [2]: did not synergize with ATRA
reversibility of induced NB4 differentiation after drug removal ([2]; 6 days with drug (10 or 100 μg/ml), washed, 6 days without): not reversed
inactivation of PRL-3 with prolonged pre-incubation ([3]; 10 μg/ml, pre-incubation 30 or 60 minutes): nearly complete inactivation
inhibition of PRL-3 with DiFMUP substrate ([3]; DiFMUP, comparable conditions): also detected
reversibility of PRL-3 inhibition by washing ([3]; PRL-3 bound to glutathione beads): not relieved by a washing process
inhibition of MKP1 [4]: no obvious effects
inhibitory activity against MKP1 [4]: no obvious inhibitory activity
